Test results taken from patent publication US20080269116A1 (priority 2004, published 2008).
Where no end group is shown, it is not given here. The star is where a group is joined. Octanoyl = CCCCCCCC(=O)*

Columns and labels:
GHS-R = target: T1, GHS-R (Homo sapiens, UniProt Q92847); assay: Intracellular calcium mobilization in cultured human T cells (Fura-2); type: cell-based
T1 construct: endogenous in cells; host or cells: cultured human T cells
Description: Intracellular calcium mobilization. […] Cells were incubated in PBS containing 5 μM Fura-2 AM for 30 minutes at room temperature. The cells were subsequently washed and then resuspended at 1×10^6/mL in PBS. A total of 2 mL of the cell suspension was placed in a continuously stirring cuvette at room temperature in an LS50B spectrophotometer (Perkin-Elmer, Wellesley, Mass.). Fluorescence was monitored at λex1=340 nm, λex2=380 nm, and λem=510 nm. The data are presented as the relative ratio of fluorescence excited at 340 and 380 nm.

Human PBMCs = assay: Cytokine production by PHA-stimulated human PBMCs (ELISA); type: cell-based; details: 24 h
human T cells [1] = assay: Actin polymerization in human T cells (phalloidin staining); type: cell-based; details: ghrelin 100 ng/ml, 20 min
From the text: Actin Polymerization. […] Thereafter cells were fixed and permeabilized in 2% Paraformaldehyde plus 0.1% Triton-X 100 and stained for actin using phalloidin AF-594 and nucleus by DAPI.

LPS-induced endotoxemia [2] = assay: LPS-induced endotoxemia in mice: tissue cytokine mRNA, real time PCR; type: in vivo, BALB/c mice; details: for TNF-α expression: 24 h post LPS
Description: (§1) Mice. Male 20-22 g BALB/c mice (Taconic, Germantown, N.Y.), 8-10 weeks old, were used. The guidelines proposed by the committee for the Care of Laboratory Animal Resources Commission of Life Sciences-National Research Council were followed to minimize animal pain and distress. Each animal received rodent laboratory chow and ad libitum water.
(§2) LPS-induced inflammation. Endotoxin shock in mice was induced by intraperitoneal (i.p.) injection with 10 μg of LPS (E. coli serotype 055:B5, Sigma) as described previously (Bochkov et al. 2002. Nature. 419: 77-8). […] Mice were sacrificed 4 h and 24 h post-LPS challenge and visceral organs and serum were collected.
(§3) Real Time RT-PCR analysis. RT-PCR was performed as described previously (Nagasawa et al. Adv. Immunol. 71: 211-228 (1999)). Total RNA (2 μg) and oligo-dT primers were used to synthesize single-stranded cDNA using the Reverse Transcription kit (Life Technologies, Gaithersburg, Md.) according to manufacturer's instructions. The PCR was set up using SYBR green Master Mix (Applied Biosystems), 1 μl cDNA and gene-specific primers at a final concentration of 0.3 μM. Thermal cycling was carried out on the Applied Biosystems GeneAmp 7700 Sequence Detector and SYBR green dye intensity was analyzed using GeneAmp 7700 SDS software. […] Mouse IL-1β, IL-6, TNF-α, GAPDH and human GHS-R1a primers were designed using ABI prism software (PE Applied Biosystems). The PCR product of the GHS-R 1a amplification was quantitated using the Agilent 2100 Bioanalyzer (Agilent Technologies, Palo Alto, Calif.). Primers are available upon request. No PCR products were generated from genomic versus cDNA template.

primary human T cells [3] = assay: Leptin-induced cytokine protein and mRNA expression in anti-CD3-activated human T cells; type: cell-based; details: 24 h
Description: (§4) T cell isolation and culture. Peripheral blood mononuclear cells (PBMC) were obtained by Ficoll-Hypaque density centrifugation. T cells were purified from PBMC using human T cell enrichment columns (R&D systems) via high affinity negative selection according to manufacturer's instructions. […] T cells were stimulated with plate bound anti-human CD3 antibody (BD Pharmingen, San Diego, Calif.) (200 ng/ml) at a concentration of 3×10^6 cells/ml in AIM-V serum free media for 24 h.
(§5) Cytokine estimation. IL-1β, IL-6 and TNF-α were estimated in T cell supernatants after 24 h using commercial ELISA kits according to manufacturer's instructions (Biosource, Camarillo, Calif.). Serum cytokines were analyzed using Bio-Plex Mouse Cytokine 18-Plex Panel according to manufacturer's instructions (Biorad, Hercules, Calif.).
as §3

LPS-induced endotoxemia [4] = assay: LPS-induced endotoxemia in mice: serum cytokine levels (Bio-Plex); type: in vivo, BALB/c mice
Description: as §1, §2, §5

T cells or PBMCs = assay: Cytolytic effects: lactate dehydrogenase and trypan blue cell counts; type: cell-based, human; details: control vs hormone-treated T cells or PBMCs
From the text: The classical pro-inflammatory cytokines, IL-1a, IL-1β, IL-6 and TNF-α are known to play a critical role in development of anorexia-cachexia syndrome (Inui et al. 1999. Cancer Res. 59: 4493-4501). The anorexia-cachexia syndrome is a complex multifactorial metabolic condition associated with altered protein, carbohydrate and fat metabolism resulting in anorexia, negative energy balance, weight loss and muscle wasting (Kotler et al. 2000. Ann. Internal Med. 133: 622-634).

primary human T cells [5] = assay: Cytokine production by anti-CD3-stimulated primary human T cells (ELISA); type: cell-based; details: immobilized anti-CD3 antibody, 24 h
Description: as §4, §5

human T cells [6] = assay: T cell proliferation and IL-2 levels after anti-CD3 mAb and ghrelin; type: cell-based; details: anti-CD3 mAb and ghrelin treatment
T cells = assay: Cytokine mRNA expression in T cells, real time RT-PCR; type: cell-based, human; details: normalized with GAPDH
Description: as §4, §3

LPS-induced anorexia = assay: Food intake in LPS-challenged and control mice; type: in vivo, BALB/c mice
Description: as §1, §2

human T cells [7] = assay: Effect of leptin on ghrelin and GHS-R expression in human T cells; type: cell-based
Description: as §4
as §3, with “No PCR products were generated from genomic versus cDNA template.” left out

[8] = spleen and liver, 4 and 24 h post LPS, ghrelin 5 mg/kg i.p.
[9] = ghrelin alone vs sham control mice
[10] = PHA 1 μg/ml, ghrelin 1 to 100 ng/ml
[11] = leptin alone, primary human T cells and PBMCs

T1 sequence (Q92847 whole entry): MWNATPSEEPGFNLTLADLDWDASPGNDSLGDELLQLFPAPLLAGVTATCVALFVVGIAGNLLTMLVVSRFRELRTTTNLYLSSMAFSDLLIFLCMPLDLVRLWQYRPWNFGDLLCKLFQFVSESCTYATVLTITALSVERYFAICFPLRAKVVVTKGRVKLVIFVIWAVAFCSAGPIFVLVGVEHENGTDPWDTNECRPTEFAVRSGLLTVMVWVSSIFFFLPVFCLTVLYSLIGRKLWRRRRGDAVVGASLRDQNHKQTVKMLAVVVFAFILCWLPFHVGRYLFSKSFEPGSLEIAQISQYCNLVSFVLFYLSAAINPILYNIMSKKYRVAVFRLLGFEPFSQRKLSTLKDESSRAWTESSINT

Substance: Gly-Ser-Ser(n-Octanoyl)-Phe-Leu-Ser-Pro-Glu-His-Gln-Arg-Val-Gln-Gln-Arg-Lys-Glu-Ser-NH2 (GSS(Octanoyl)FLSPEHQRVQQRKES-NH2; N-terminus assumed; SMILES CCCCCCCC(=O)OC[C@H](NC(=O)[C@H](CO)NC(=O)CN)C(=O)N[C@@H](Cc1ccccc1)C(=O)N[C@@H](CC(C)C)C(=O)N[C@@H](CO)C(=O)N1CCC[C@H]1C(=O)N[C@@H](CCC(=O)O)C(=O)N[C@@H](Cc1c[nH]cn1)C(=O)N[C@@H](CCC(N)=O)C(=O)N[C@@H](CCCNC(=N)N)C(=O)N[C@H](C(=O)N[C@@H](CCC(N)=O)C(=O)N[C@@H](CCC(N)=O)C(=O)N[C@@H](CCCNC(=N)N)C(=O)N[C@@H](CCCCN)C(=O)N[C@@H](CCC(=O)O)C(=O)N[C@@H](CO)C(N)=O)C(C)C) [ghrelin 1-18 fragment]
- rise in intracellular [Ca^2+] (GHS-R; cultured human T cells, ghrelin 100 ng/ml): significant and specific rise in intracellular [Ca^2+]

Substance: [D-Lys-3]-GHRP-6 [reference compound]
- effect on ghrelin-mediated intracellular calcium release (GHS-R; pretreatment with antagonist 10^−4 M, then ghrelin 100 ng/ml): markedly attenuated
- effect on ghrelin-mediated inhibition of cytokine production (Human PBMCs; antagonist 10^−4 M added with ghrelin, PHA-stimulated PBMCs): attenuated this ghrelin-mediated inhibition

Substance: ghrelin
- actin polymerization / polarization of F-actin (human T cells [1]): marked increase in broad membrane structures characteristic of lamellipodia with typical polarization of F-actin
- TNF-α expression (LPS-induced endotoxemia [2]; liver): inhibited
- IL-1β mRNA expression (LPS-induced endotoxemia [2]; [8]): attenuation
- IL-6 mRNA expression (LPS-induced endotoxemia [2]; [8]): attenuation
- TNF-α mRNA (LPS-induced endotoxemia [2]; spleen and liver, 4 h post LPS): Attenuation
- TNF-α expression (LPS-induced endotoxemia [2]; spleen): remained unchanged
- leptin-induced cytokine protein and gene expression (IL-1β, IL-6, TNF-α) (primary human T cells [3]; ghrelin co-incubated with leptin 100 nM, T cells): dose-dependent inhibition
- serum IL-1β (LPS-induced endotoxemia [4]; 24 h after LPS challenge): significant inhibition
- serum IL-6 (LPS-induced endotoxemia [4]; 24 h after LPS challenge): significant inhibition
- serum ILα levels (LPS-induced endotoxemia [4]; 24 h post LPS and ghrelin treatment): inhibited
- Serum IL-1α level (LPS-induced endotoxemia [4]; [9]): significantly inhibited
- Serum IL-1β level (LPS-induced endotoxemia [4]; [9]): significantly inhibited
- circulating IL-6 level (LPS-induced endotoxemia [4]; serum, 4 h): but not in IL-1β (FIG. 7a) or IL-6
- circulating TNF-α level (LPS-induced endotoxemia [4]; serum, 4 h): significant change
- TGF-β production (Human PBMCs; PHA 1 μg/ml, any concentration tested): failed to alter TGF-β production
- IL-1β production (Human PBMCs; [10]): significant inhibition
- IL-6 production (Human PBMCs; [10]): significant inhibition
- TNF-α production (Human PBMCs; [10]): significant inhibition
- cytolytic effects (LDH, cell counts by trypan blue exclusion) (T cells or PBMCs): failed to demonstrate any significant difference between control and hormone-treated cells
- IL-1β production (primary human T cells [5]): significant dose-dependent inhibition
- IL-6 production (primary human T cells [5]): significant dose-dependent inhibition
- IL-2 secretion (human T cells [6]): no significant effects
- T cell proliferation (human T cells [6]): no significant effects
- IL-1β mRNA expression (T cells): significantly inhibits
- IL-6 mRNA expression (T cells): significantly inhibits
- TNF-α mRNA expression (T cells): significantly inhibits
- LPS-induced anorexia (food intake) (LPS-induced anorexia; 24 h post ghrelin and LPS, prior ghrelin treatment): significant attenuation of this LPS-induced anorexia
- increase in food intake compared to sham controls (LPS-induced anorexia; ghrelin-treated control mice in the absence of LPS challenge, 24 h): 30%

Substance: leptin: a member of gp130 family of cytokines, regarded as a pro-inflammatory inducer
- IL-1β protein and mRNA expression (primary human T cells [3]; [11]): significant dose-dependent increase
- IL-6 protein and mRNA expression (primary human T cells [3]; [11]): significant dose-dependent increase
- TNF-α protein and mRNA expression (primary human T cells [3]; [11]): significant dose-dependent increase
- ghrelin protein production or gene expression (human T cells [7]; anti-CD3-stimulated T cells, 24 h): failed to exert any significant effects
- GHS-R mRNA expression (human T cells [7]; human T cells, real time RT-PCR): significant increase
